From PubChem BioAssay (NCI) come the findings set out here.

Holding throughout (test): growth of human tumour cells (NCI), 48 h
Assay [1] has as its system A498 renal.
In assay [2] the test system is A549 NSCLC.
Assay [3] deals with HCC-2998 colon.
Assay [4] concerns MCF7 breast.
The subject of assay [5] is MDA-MB-435.
Assay [6] has as its system OVCAR-3 ovarian.
For assay [7], the system named is OVCAR-8 ovarian.
The subject of assay [8] is SK-MEL-28 melanoma.
In assay [9] the test system is SK-OV-3 ovarian.
Assay [10] relates to SNB-19 CNS.

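These data come from cells grown in 96-well plates and exposed to compound for 48 hours at five concentrations. GI50 marks 50% less growth. Definition used: TGI = concentration required for complete inhibition of growth.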

Regarding `COc1ccc2cc(CNCCCCCCNCc3ccc4cc(OC)ccc4c3)ccc2c1`, the TGI is 2.99 µM in assay [1]; 3.44 µM in assay [2]; 0.277 µM in assay [3]; 1.2 µM in [4]; 0.497 µM in assay [5]; 1.17 µM in [6]. Also, the TGI was determined as 1.15 µM in assay [7], 1.42 µM in assay [8], 3.24 µM in assay [9] and 1.87 µM in assay [10].

`O=C(c1cccs1)N1CCN(C(=O)c2cccs2)C1=S`: the TGI in assay [1] was 32.1 µM; in assay [2], 19.8 µM; in [3], 22 µM; in assay [4], 14.8 µM; in [5] it was 10.2 µM; in assay [6], 10.7 µM. The TGI in [7] worked out at 21.4 µM; in assay [8], 19.2 µM; in [9], 28.9 µM; in [10], 32.7 µM.

As for `COc1cnc2c(c1)C(=O)c1c-2n(CCCNCCO)c(=O)c2ccncc12`, the GI50 in assay [1] was 0.772 µM; in assay [2] it was 1.99 µM; in assay [3] it was 1.58 µM; in assay [4] it was 0.303 µM; in assay [5], 1.31 µM; in assay [6], 2.26 µM. The GI50 in assay [7] was 0.876 µM; in assay [8], 2.08 µM; in assay [9] it was 3.94 µM. For the same compound, the TGI in assay [1] turned out to be 2.62 µM; in [2], 9.38 µM; in assay [3] it was 4.19 µM; in assay [4], 11.3 µM; in assay [5] it was 2.98 µM; in assay [6], 9.73 µM. For the same compound, the TGI was found to be 23.7 µM in assay [7], 5.79 µM in assay [8] and 61.3 µM in assay [9].

Consider `C/C(=N\NC(=S)N(C)C)c1cccnn1`, for which the TGI in assay [1] was 10.7 µM; in [3] it was over 100 µM; in [4] it was over 45 µM; in assay [5], over 100 µM; in assay [6], over 100 µM; in [7], over 100 µM. For the same compound, the TGI in [8], in [9] and in assay [10] was over 100 µM each time.

Take `c1ccc(CN2CCC(Nc3ccccc3)(c3nnnn3Cc3ccccc3)CC2)cc1`: the TGI in assay [1] was 63.8 µM; in assay [2], over 100 µM; in [3], 10.5 µM; in [4], 88.2 µM; in assay [5] it was over 100 µM; in assay [7] it was over 100 µM. The TGI is 36.5 µM in [8], over 100 µM in [9] and over 100 µM in [10].

Consider `N#Cc1cc2c(n(C3OC(CO)C(O)C(O)C3O)c1=S)CCCCCC2` (centres undefined), for which the TGI in assay [1], in assay [2], in assay [3], in assay [4], in assay [5] and in assay [6] was over 100 µM in each case. Also, the TGI in [7], in assay [8] and in [10] was over 100 µM throughout.

On to `Cc1ccc(S(=O)CC(CF)OCn2cc(C)c(=O)[nH]c2=O)cc1` (centres undefined), for which the TGI in [2], in assay [3], in assay [4], in [5], in assay [6] and in assay [7] was over 100 µM throughout. For the same compound, the TGI in assay [8], in assay [9] and in assay [10] was over 100 µM in each case.

With `CN1C(=O)C(O)C[C@@H]1c1ccccc1` (some centres undefined), the TGI in [2], in assay [3], in [4], in [5], in assay [6] and in assay [7] was over 100 µM each time. Moreover, the TGI in assay [8], in [9] and in [10] was over 100 µM throughout.

Turning to `Cc1cc2c([nH]c3ccccc32)c(O)c1-c1c(C)cc2c([nH]c3ccccc32)c1O`, the GI50 in assay [1] was 15.9 µM; in assay [4], 11.2 µM; in assay [5], 15 µM. The TGI in assay [1] came out at 29.4 µM; in assay [2] it was 26.8 µM; in [3], 22.4 µM; in [4] it was 25 µM; in assay [5] it was 28.2 µM; in [6], 29.3 µM. Further, the TGI came to 30.4 µM in [7], 55 µM in assay [8] and 32.2 µM in assay [10].

Regarding `CCOC(=O)c1cc(C)nc2c1c(=O)n(-c1ccccc1)c(=O)n2CCCCN1CCN(c2ccccc2)CC1`, the TGI in assay [1], in assay [2], in [3], in assay [4], in assay [5] and in assay [7] was over 100 µM each time. Further, the TGI in assay [8] and in assay [9] was over 100 µM in each case.

Take `COc1ccc(C(=O)CC(c2ccccc2)[C@H]2C(c3ccc(OC)cc3)=Nc3c(nc(SC)n(C)c3=O)NC2c2ccccc2)cc1` (some centres undefined): the TGI in assay [1], in assay [2], in [3], in [4], in [5] and in [6] was over 100 µM in each case. In addition, the TGI in assay [8], in assay [9] and in assay [10] was over 100 µM in each case.

On to `COc1ccc(C(SC2C(O)C(CO)OC2n2ccc(=O)[nH]c2=O)(c2ccccc2)c2ccc(OC)cc2)cc1` (centres undefined), for which the TGI is 45.4 µM in assay [2]; 30.3 µM in assay [3]; 43.7 µM in assay [4]; 22.8 µM in assay [5]; 37.1 µM in assay [6]; 45.5 µM in assay [7]. Further, the TGI is 53.9 µM in [8], 84.7 µM in assay [9] and 41 µM in assay [10].

`CCCSc1ccc2[nH]c(N3C(=O)/C(=C/c4ccccc4)N=C3c3ccccc3)cc2c1`: the TGI in assay [1] is over 50 µM; in assay [2], over 50 µM; in [3], 44.6 µM; in assay [4], over 50 µM; in [5], 21.3 µM; in assay [7], over 50 µM. Further, the TGI in assay [8] and in assay [10] was over 50 µM throughout.
